Test results as given in patent EP3446753B1, “NEW THERAPEUTIC USES OF PEPTIDES OF THE ADIPOKINETIC HORMONE FAMILY” (Mutlu, Oguz, priority 2017, dated 2019).
Counter-ions that a name gives are not always drawn. Square brackets hold non-standard residues; d marks the D form. Peptide text beside a SMILES is read from it. pGlu = O=C1CC[C@@H](C(=O)O)N1

Key:
Long Evans rats = assay: Active Allothetic Place Avoidance test (AAPA), MK-801 model; assay type: in vivo; details: for MK-801 (0.15 mg/kg) induced cognitive memory impairment effects: peptide 2 mg/kg administered subchronically + MK-801 0.15 mg/kg, summary statement; for reversal of MK-801 increased locomotion (total distance (m) moved) / reversal of MK-801 decreased maximum time of avoidance (s) / reversal of MK-801 increased number of entries to the shock sector / reversal of MK-801 increased number of shocks: peptide 2 mg/kg i.p. + MK-801 0.15 mg/kg i.p., compared to MK-801 alone; for reversal of MK-801 increased locomotion (total distance (m) moved): 4 days (subchronically)
Procedure: 3-4 month-old male rats of the Long Evans strain were used for the Active Allothetic Place Avoidance test and were obtained from the accredited breeding colony of the Institute of Physiology, Academy of Science, Prague. Rats were acclimatised for 7-10 days prior to testing, during which they were weighed twice and handled four times. Rats were housed in pairs in transparent plastic cages (30×30×40 cm) in an air-conditioned animal room with a constant temperature of 21 °C and with 12/12 light/dark cycle (lights on at 7:00). All animals received food and water ad libitum. All experiments respected the Guidelines of the European Union (86/609/EU) and the National Committee for the Care and Use of Laboratory Animals (Czech Republic) and were approved by the committee under the number: MEYSCR-27527/2012-31.
In the Active Allothetic Place Avoidance test, Long Evans rats were treated with Ani-AKH (1 and 2 mg/kg) (n=8), Lia-AKH (1 and 2 mg/kg) (n=8), Pht-HrTH (1 and 2 mg/kg) (n=8), MK-801 (0.15 mg/kg) (n=8), Ani-AKH (2 mg/kg)+MK-801 (0.15 mg/kg) (n=8), Lia-AKH (2 mg/kg)+MK-801 (0.15 mg/kg) (n=8), Pht-HrTH (2 mg/kg)+MK-801 (0.15 mg/kg) (n=8) or vehicle (control group=saline with 15% DMSO) (n= 8) for 4 days (subchronically). Ani-AKH, Lia-AKH and Pht-HrTH were administered intraperitoneally (i.p.) 60 min. before the Active Allothetic Place Avoidance test while MK-801 was administered (i.p.) 40 min. before the test in a volume of 2ml/kg body weight. Separate group of animals were used in each test. The doses of the drugs were chosen according to the previous studies (Mutlu et al. 2016).
(+)-MK-801 maleate ((5S,10R)-(+)-5-methyl-10,11-dihydro-5H-dibenzo(a, d)-cyclo-hepten-5,10-imine maleate) was obtained from Tocris Bioscience, United Kingdom. Anax imperator AKH (Ani-AKH), Libellula auripennis AKH (Lia-AKH) and Phormia-Terra hypertrehalosemic hormone (Pht-HrTH) were purchased from TRC (Toronto/Canada). MK-801 was dissolved in saline while AKH was dissolved in saline mixed with 15% DMSO. Saline with 15% DMSO was used as control group.
The Active Allothetic Place Avoidance Test is a spatial memory test that can determine the ability of animals to organize their behavior efficiently in both normal and pathological conditions. Successful performance in the test requires the rat to solve a conflict between two discordant subsets of spatial stimuli (extramaze and intramaze cues). It is believed that successful performance in the Active Allothetic Place Avoidance Test, where the rat has to differentiate between relevant and irrelevant stimuli, depends on the mode of information processing disturbed in schizophrenic patients (Bubenikova-Valesova et al., 2008b). The Active Allothetic Place Avoidance arena was described in detail in previous papers (Cimadevilla et al., 2001). Briefly, it consisted of a smooth metallic circular arena (82 cm in diameter), enclosed by a 30 cm high transparent Plexiglas wall. The arena was elevated 1 m above the floor of 4×5 m experimental room containing an abundance of extramaze landmarks. The arena together with the wall was rotated (1 rpm) by an electric motor placed underneath the arena disc. At the beginning of each training session, a rat was placed in the arena at a location opposite an imperceptible 60° to-be- avoided sector (shock sector), which was defined by the computer- based tracking system (iTrack, Biosignal Group, USA), located in an adjacent room. The arena rotation started immediately after placement of the rat. The location of the shock sector could be determined solely by its spatial relation to the distal orienting cues located in the room. Rats were wearing a light latex harness, to which an infrared light-emitting diode (LED) was attached between the rat's shoulders. Whenever the rat entered the to-be-avoided sector for more than 500 ms (millisecond), the tracking system delivered a mild, constant-current shock (50 Hz, 0.5 s, 0.4-0.7 mA) and counted an entrance. […]

[1] = system: Emperor dragonfly, Anax imperator; details: low concentrations of the synthetic peptide injected into the Emperor dragonfly; cited from earlier work
[2] = MK-801 0.15 mg/kg i.p. alone, 4 days, compared to control

| SMILES | locomotion (total distance (m) moved) (Long Evans rats; [2]) | maximum time of avoidance (s) (Long Evans rats; [2]) | number of entries to the shock sector (Long Evans rats; [2]) | number of shocks (Long Evans rats; [2]) | MK-801 (0.15 mg/kg) induced cognitive memory impairment effects (Long Evans rats) | reversal of MK-801 increased locomotion (total distance (m) moved) (Long Evans rats) | reversal of MK-801 decreased maximum time of avoidance (s) (Long Evans rats; 4 days) | reversal of MK-801 increased number of entries to the shock sector (Long Evans rats; 4 days) | reversal of MK-801 increased number of shocks (Long Evans rats; 4 days) | haemolymph lipid concentration [1] |
| --- | --- | --- | --- | --- | --- | --- | --- | --- | --- | --- |
| C[C@]12N[C@H](Cc3ccccc31)c1ccccc12 [MK-801, (5S,10R)-(+)-5-methyl-10,11-dihydro-5H-dibenzo(a, d)-cyclo-hepten-5,10-imine maleate] | significantly increased locomotion | significantly decreased maximum time of avoidance | significantly increased number of entries | significantly increased number of shocks |  |  |  |  |  |  |
| CC(C)C[C@H](NC(=O)[C@@H]1CCC(=O)N1)C(=O)N[C@H](C(=O)N[C@@H](Cc1ccccc1)C(=O)N[C@@H](CO)C(=O)N1CCC[C@H]1C(=O)N[C@@H](CC(=O)O)C(=O)N[C@@H](Cc1c[nH]c2ccccc12)C(N)=O)[C@@H](C)O [Pht-HrTH, 5-oxo-L-prolyl-L-leucyl-L-threonyl-L-phenylalanyl-L-seryl-L-prolyl-L-alfa-aspartyl-L-Tryptophanamide] ([pGlu]LTFSPDW-NH2) |  |  |  |  | reverse | no reversing effect | significantly reversed this effect | significantly reversed this effect | significantly reversed this effect |  |
| CC(C)[C@H](NC(=O)[C@@H]1CCC(=O)N1)C(=O)N[C@@H](CC(N)=O)C(=O)N[C@@H](Cc1ccccc1)C(=O)N[C@H](C(=O)N1CCC[C@H]1C(=O)N[C@@H](CO)C(=O)N[C@@H](Cc1c[nH]c2ccccc12)C(N)=O)[C@@H](C)O [Lia-AKH, 5-oxo-L-prolyl-L-valyl-L-asparaginyl-L-phenylalanyl-L-threonyl-L-prolyl-L-seryl-L-Tryptophanamide] ([pGlu]VNFTPSW-NH2) |  |  |  |  | reverse | partial effect | significantly reversed this effect | significantly reversed this effect | significantly reversed this effect |  |
| CC(C)[C@H](NC(=O)[C@@H]1CCC(=O)N1)C(=O)N[C@@H](CC(N)=O)C(=O)N[C@@H](Cc1ccccc1)C(=O)N[C@@H](CO)C(=O)N1CCC[C@H]1C(=O)N[C@@H](CO)C(=O)N[C@@H](Cc1c[nH]c2ccccc12)C(N)=O [Ani-AKH, 5-oxo-L-prolyl-L-valyl-L-asparaginyl-L-phenylalanyl-L-seryl-L-prolyl-L-seryl-L-Tryptophanamide] ([pGlu]VNFSPSW-NH2) |  |  |  |  | reverse | significantly reversed | significantly reversed this effect | significantly reversed this effect | significantly reversed this effect | increased the haemolymph lipid concentration |
